Experimental data from patent US20260217716A1, “ANDROGEN RECEPTOR MODULATORS AND METHODS FOR THEIR USE” (Capulus Therapeutics, LLC, priority 2022, published 2026).
Positions count from the first letter of the chain named. Where two headings read alike, the source gives them in different places.

Assays:
[1] = target: T1, Human androgen receptors (Homo sapiens, UniProt P10275, T878A); assay: Biochemical AR LBD antagonism (Eurofins AR radioligand binding assay)
T1 construct: Human androgen receptors obtained from human LNCaP cells were used; host or cells: human LNCaP cells
T1 sequence (P10275 1-920 T878A): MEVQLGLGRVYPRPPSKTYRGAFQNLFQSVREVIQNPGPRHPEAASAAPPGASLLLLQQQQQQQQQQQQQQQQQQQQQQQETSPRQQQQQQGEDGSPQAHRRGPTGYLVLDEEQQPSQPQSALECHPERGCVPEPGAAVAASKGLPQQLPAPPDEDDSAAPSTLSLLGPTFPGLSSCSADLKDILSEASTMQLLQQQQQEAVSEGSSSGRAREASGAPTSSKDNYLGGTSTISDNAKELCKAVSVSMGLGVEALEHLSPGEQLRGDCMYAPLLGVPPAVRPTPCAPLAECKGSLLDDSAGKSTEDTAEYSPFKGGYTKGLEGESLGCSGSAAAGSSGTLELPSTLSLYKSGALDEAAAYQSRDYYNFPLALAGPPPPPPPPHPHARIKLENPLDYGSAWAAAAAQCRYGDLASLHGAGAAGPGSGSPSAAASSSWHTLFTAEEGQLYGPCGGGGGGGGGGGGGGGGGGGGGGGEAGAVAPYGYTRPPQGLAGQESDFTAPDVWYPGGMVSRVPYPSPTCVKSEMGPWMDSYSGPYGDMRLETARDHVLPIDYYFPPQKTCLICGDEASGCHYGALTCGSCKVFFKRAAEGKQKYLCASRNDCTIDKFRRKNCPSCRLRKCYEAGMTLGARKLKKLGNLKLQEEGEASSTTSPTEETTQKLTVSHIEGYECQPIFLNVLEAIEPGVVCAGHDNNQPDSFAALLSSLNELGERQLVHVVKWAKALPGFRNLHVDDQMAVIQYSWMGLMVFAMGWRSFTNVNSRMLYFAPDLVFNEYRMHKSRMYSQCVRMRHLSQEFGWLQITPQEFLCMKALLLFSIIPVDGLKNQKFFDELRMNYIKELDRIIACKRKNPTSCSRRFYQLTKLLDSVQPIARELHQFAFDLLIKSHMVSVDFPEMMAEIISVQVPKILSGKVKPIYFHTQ
Protocol: Human androgen receptors obtained from human LNCaP cells were used in modified HEPES buffer pH 7.4. A 70 μg‡ aliquot was incubated with 0.5 nM [3H] Methyltrienolone for 20 h at 4° C. Non-specific binding was estimated in the presence of 1 μM testosterone. Receptors were filtered and washed, the filters were then counted to determine [3H] Methyltrienolone specifically bound. Compounds were screened at 10 μM.
Furthermore, as noted earlier, most clinically relevant AR inhibitors target the ligand binding domain (LBD) of the androgen receptor, and these inhibitors can lose efficacy due to point mutations in the LBD. Given that the AR protein contains multiple sub-domains, targeting other domains is an attractive approach for new inhibitors. […] Therefore, the compounds as described herein may be interacting with other subdomains in the AR protein, namely the N-terminal domain.

[2] = target: T2, human AR (Homo sapiens, UniProt P10275); assay: Indigo Biosciences AR reporter cell assay (AR inhibition, antagonist mode); assay type: cell-based; conditions: for IC50: luciferase reporter cells, 24 hr, EC80 of agonist 5α-dihydro-11-keto testosterone, read-out: AR Inhibition Indigo Cell Based: Avg IC50
T2 construct: Reporter Cells used in these assays expressed a native receptor (AR)
T2 sequence (P10275 1-920): T1 sequence (P10275 1-920 T878A) with A878T
Protocol: The aim of this study was to evaluate compounds 1-12 and the comparative compounds 1-2 for inhibition activities against human AR. Reporter Cells used in these assays expressed a native receptor (AR). The reporter gene, firefly luciferase, is functionally linked to an upstream receptor-specific genetic response element (GRE). Reporter cells were treated with eight concentrations, starting at 50 μM and following with 3.17-fold dilutions. Single treatment concentration was performed (n=1). Assay performance was validated using the reference antagonist hydroxy flutamide. • Step 1: A suspension of reporter cells was prepared in Cell Recovery Medium (CRM). Reporter cells were first supplemented with 2×-EC80 concentration of the reference agonist, 5α-dihydro-11-keto testosterone, then 100 μl of the Reporter Cell suspension was dispensed into wells of a white 96-well assay plate. • Step 2: Test compound master stocks were diluted in DMSO to generate solutions at ‘500×-concentration’ relative to the final treatment concentration and diluted directly into INDIGO's Compound Screening Medium (CSM; containing charcoal-stripped FBS) to generate ‘2×-concentration’ treatment media. This was diluted into the wells to the final concentration. Assay plates were incubated at 37° C., 5% CO2 and ~70% humidity for 24 hr. • Step 3: Following the incubation period, wells were rinsed once with Live Cell Multiplex (LCM) Buffer, then LCM substrate was added. Following incubation at room temperature for 15 min, LCM substrate was discarded and 100 μL/well of luciferase detection reagent was added. Subsequently, fluorescence was measured to determine the relative number of live cells per assay well. RLU values were quantified after a 10 min incubation period at room temperature to determine nuclear receptor activities.

[3] = Mouse liver microsome stability; assay type: in vitro ADME; conditions: 1 μM
Protocol: (§1) Preincubation mixture 2.5 μL Test Cpd. +75 μL Liver microsomes (human or mouse source) @ 3.33 mg/mL+85 µL of 100 mM potassium phosphate buffer (preincubate for 10 min @ 37° C.). Incubation mixture 62 μL of cofactor (2.85 mM)+Remaining incubation mixture (Incubated for 60 min @ 37° C.). Sample preparation 25 μL incubation mixture+200 μL of acetonitrile containing internal standard+Vortex 5 min @ 1200 rpm+Centrifuge 10 min @ 4000 rpm. Supernatant diluted 2-fold with water and injected on LC-MS/MS.

[4] = Human liver microsome stability; assay type: in vitro ADME; conditions: 1 μM
Protocol: as §1

[5] = Table 3, read-out: Biochemical AR LBD Antagonism: Avg IC50
[6] = Table 5, mouse liver microsomes
[7] = Table 5, human liver microsomes
[8] = Table 4, read-out: Biochemical AR LBD Antagonism: Average IC50
[9] = Table 6, mouse liver microsomes
[10] = Table 6, human liver microsomes

Row | SMILES | IC50 [1, 5] [nM] | IC50 ([2]; Table 1) [nM] | Mouse LM: Rem @ 60 min [3, 6] | Human LM: Rem @ 60 min [4, 7] | IC50 [1, 8] [nM] | IC50 ([2]; Table 2) [nM] | times more potent than the racemic mixture (Comparative Compound 1) in the cell-based activity assay ([2]; versus Comparative Compound 1) | times more potent than the S isomer (Comparative Compound 2) in the cell-based activity assay ([2]; versus Comparative Compound 2) | Mouse LM: Rem @ 60 min [3, 9] | Human LM: Rem @ 60 min [4, 10]
1 | CC(Nc1ccc2nnc(C(F)(F)F)n2n1)c1ccc(F)cc1 (racemic) [Comparative Compound 1, (R, S)—N-(1-(4-fluorophenyl)ethyl)-3-(trifluoromethyl)-[1,2,4]triazolo[4,3-b]pyridazin-6-amine, reference compound] | > 501 | 51 to 500 | +++ (>60.1: “+++”) | +++ (>60.1: “+++”) |  |  |  |  |  | 
2 | C[C@@H](Nc1ccc2nnc(C(F)(F)F)n2n1)c1ccc(F)cc1 [Compound 1, (R)—N-(1-(4-fluorophenyl)ethyl)-3-(trifluoromethyl)-[1,2,4]triazolo[4,3-b]pyridazin-6-amine] | > 501 | < 50 | ++ (30.1-60: “++”) | +++ (>60.1: “+++”) | > 501 | < 50 | ~ 2 times | ~ 150 times | ++ (30.1-60: “++”) | +++ (>60.1: “+++”)
3 | C[C@@H](Nc1ccc2nnc(C(F)(F)F)n2n1)c1cc(F)cc(F)c1 [Compound 2, (R)—N-(1-(3,5-difluorophenyl)ethyl)-3-(trifluoromethyl)-[1,2,4]triazolo[4,3-b]pyridazin-6-amine] |  |  |  |  | > 501 | < 50 |  |  | +++ (>60.1: “+++”) | +++ (>60.1: “+++”)
4 | CC[C@@H](Nc1ccc2nnc(C(F)(F)F)n2n1)c1ccc(F)cc1 [Compound 3, (R)—N-(1-(4-fluorophenyl)propyl)-3-(trifluoromethyl)-[1,2,4]triazolo[4,3-b]pyridazin-6-amine] |  |  |  |  | > 501 | < 50 |  |  | +++ (>60.1: “+++”) | +++ (>60.1: “+++”)
5 | C[C@@H](Nc1ccc2nnc(C(F)(F)F)n2n1)c1ccc(C(F)(F)F)cc1 [Compound 4, (R)-3-(trifluoromethyl)-N-(1-(4-(trifluoromethyl)phenyl)ethyl)-[1,2,4]triazolo[4,3-b]pyridazin-6-amine] |  |  |  |  |  | 51 to 500 |  |  | +++ (>60.1: “+++”) | +++ (>60.1: “+++”)
6 | COc1cc(Cl)cc([C@@H](C)Nc2ccc3nnc(C(F)(F)F)n3n2)c1 [Compound 7, (R)—N-(1-(3-chloro-5-methoxyphenyl)ethyl)-3-(trifluoromethyl)-[1,2,4]triazolo[4,3-b]pyridazin-6-amine] |  |  |  |  | 51 to 500 | 51 to 500 |  |  | + (0-30: “+”) | +++ (>60.1: “+++”)
7 | C[C@@H](Nc1ccc2nnc(C(F)(F)F)n2n1)c1ccc(C#N)cc1 [Compound 9, (R)-4-(1-((3-(trifluoromethyl)-[1,2,4]triazolo[4,3-b]pyridazin-6-yl)amino)ethyl)benzonitrile] |  |  |  |  |  | > 501 |  |  |  | 

The remaining lines, values ahead:

Row | IC50 [1, 5] [nM] | IC50 ([2]; Table 1) [nM] | Mouse LM: Rem @ 60 min [3, 6] | Human LM: Rem @ 60 min [4, 7] | IC50 [1, 8] [nM] | IC50 ([2]; Table 2) [nM] | times more potent than the racemic mixture (Comparative Compound 1) in the cell-based activity assay ([2]; versus Comparative Compound 1) | times more potent than the S isomer (Comparative Compound 2) in the cell-based activity assay ([2]; versus Comparative Compound 2) | Mouse LM: Rem @ 60 min [3, 9] | Human LM: Rem @ 60 min [4, 10] | SMILES
8 | > 501 | > 501 |  |  |  |  |  |  |  |  | C[C@H](Nc1ccc2nnc(C(F)(F)F)n2n1)c1ccc(F)cc1 [Comparative Compound 2, (S)—N-(1-(4-fluorophenyl)ethyl)-3-(trifluoromethyl)-[1,2,4]triazolo[4,3-b]pyridazin-6-amine, reference compound]
9 |  |  |  |  | 51 to 500 | 51 to 500 |  |  | + (0-30: “+”) | +++ (>60.1: “+++”) | C[C@H](c1ccc(F)cc1)N(C)c1ccc2nnc(C(F)(F)F)n2n1 [Compound 5, (R)—N-(1-(4-fluorophenyl)ethyl)-N-methyl-3-(trifluoromethyl)-[1,2,4]triazolo[4,3-b]pyridazin-6-amine]
10 |  |  |  |  | > 501 | 51 to 500 |  |  | + (0-30: “+”) | +++ (>60.1: “+++”) | COc1cc([C@@H](C)Nc2ccc3nnc(C(F)(F)F)n3n2)ccc1F [Compound 6, (R)—N-(1-(4-fluoro-3-methoxyphenyl)ethyl)-3-(trifluoromethyl)-[1,2,4]triazolo[4,3-b]pyridazin-6-amine]
11 |  |  |  |  | > 501 | 51 to 500 |  |  | +++ (>60.1: “+++”) | +++ (>60.1: “+++”) | C[C@@H](Nc1ccc2nnc(C(F)(F)F)n2n1)c1cc(Cl)cc(Cl)c1 [Compound 8, (R)—N-(1-(3,5-dichlorophenyl)ethyl)-3-(trifluoromethyl)-[1,2,4]triazolo[4,3-b]pyridazin-6-amine]
12 |  |  |  |  |  | > 501 |  |  |  |  | C[C@@H](Nc1ccc2nnc(C3CC3)n2n1)c1ccc(F)cc1 [Compound 11, (R)-3-cyclopropyl-N-(1-(4-fluorophenyl)ethyl)-[1,2,4]triazolo[4,3-b]pyridazin-6-amine]
